Laboratory results taken from patent US6586434B2, “Method for the preparation of tetrahydrobenzothiepines” (G.D. Searle, LLC, priority 2000, dated 2003).

Assay: Water uptake experiments (Dynamic Vapor Sorption, water sorption/desorption isotherms)
Format: physicochemical
Conditions: for Desorptoin % Weight Change: reverse stepwise RH decrease; for Sorption % Weight Change: stepwise RH increase
Procedure: Water sorption experiments are performed on a Dynamic Vapor Sorption (DVS) apparatus (DVS-1000 manufactured by Surface Measurements Systems, Inc.). Experiments are performed at 25° C. by initially drying the material of interest (about 10 mg sample) from 30% relative humidity (RH) (ambient room condition) to about 9% RH in a stepwise fashion (10% RH step) by purging with dry nitrogen until no further weight change was observed. The samples are then exposed to a stepwise (10% RH steps) increase in RH from about 0 to about 90% RH. Each successive step is initiated when the change in weight over time at the relative humidity was less than 0.0003% ((dm/dt)/m0×100, where m is mass in mg, m0 is initial mass, and t is time in minutes). The sample is then taken through the reverse of the stepwise % RH increase. The data are collected on a computer and analyzed using SMS' proprietary MS-Excel macro interface software.

With `CCCCC1(CCCC)CS(=O)(=O)c2ccc(N(C)C)cc2[C@@H](c2ccc(OCc3ccc(C[N+]45CCN(CC4)CC5)cc3)cc2)[C@H]1O.[Cl-]` [Form I, (4R,5R)-1-((4-(4-(3,3-dibutyl-7-(dimethylamino)-2,3,4,5-tetrahydro-4-hydroxy-1,1-dioxido-1-benzithiepin-5-yl)phenoxy)methyl)phenyl)methyl-4-aza-1-azoniabicyclo[2.2.2]octane chloride] the “Desorptoin % Weight Change” value (0.45 % RH at 25° C.) was 0.057%, the “Sorption % Weight Change” value (0.45 % RH at 25° C.) was 0.057% and the “Desorptoin % Weight Change” value (9.2 % RH at 25° C.) was 0.997%. For the same compound, the “Sorption % Weight Change” value (9.2 % RH at 25° C.) was 0.9575%, the “Desorptoin % Weight Change” value (20.05 % RH at 25° C.) was 2.1025% and the “Sorption % Weight Change” value (20.05 % RH at 25° C.) was 2.016%. The “Desorptoin % Weight Change” value (29.75 % RH at 25° C.) was 3.599%, the “Sorption % Weight Change” value (29.75 % RH at 25° C.) was 3.4105% and the “Desorptoin % Weight Change” value (39.4 % RH at 25° C.) was 4.743%. The “Sorption % Weight Change” value (39.4 % RH at 25° C.) was 4.282%, the “Desorptoin % Weight Change” value (49.55 % RH at 25° C.) was 5.321% and the “Sorption % Weight Change” value (49.55 % RH at 25° C.) was 4.928%. The “Desorptoin % Weight Change” value (59.4 % RH at 25° C.) was 5.726%, the “Sorption % Weight Change” value (59.4 % RH at 25° C.) was 5.356% and the “Desorptoin % Weight Change” value (69.05 % RH at 25° C.) was 6.054%. The “Sorption % Weight Change” value (69.05 % RH at 25° C.) was 5.706%, the “Desorptoin % Weight Change” value (78.8 % RH at 25° C.) was 6.357% and the “Sorption % Weight Change” value (78.8 % RH at 25° C.) was 6.109%. For the same compound, the “Desorptoin % Weight Change” value (88.5 % RH at 25° C.) was 6.734% and the “Sorption % Weight Change” value (88.5 % RH at 25° C.) was 6.734%.
In the case of `CCCCC1(CCCC)CS(=O)(=O)c2ccc(N(C)C)cc2[C@@H](c2ccc(OCc3ccc(C[N+]45CCN(CC4)CC5)cc3)cc2)[C@H]1O.[Cl-]` [Form II, (4R,5R)-1-((4-(4-(3,3-dibutyl-7-(dimethylamino)-2,3,4,5-tetrahydro-4-hydroxy-1,1-dioxido-1-benzithiepin-5-yl)phenoxy)methyl)phenyl)methyl-4-aza-1-azoniabicyclo[2.2.2]octane chloride], the “Desorptoin % Weight Change” value (1.3 % RH at 25° C.) was −0.02695%, the “Sorption % Weight Change” value (1.3 % RH at 25° C.) was −0.02695% and the “Desorptoin % Weight Change” value (9.35 % RH at 25° C.) was 0.04235%. The “Sorption % Weight Change” value (9.35 % RH at 25° C.) was 0.04715%, the “Desorptoin % Weight Change” value (20.25 % RH at 25° C.) was 0.09715% and the “Sorption % Weight Change” value (20.25 % RH at 25° C.) was 0.1058%. The “Desorptoin % Weight Change” value (29.75 % RH at 25° C.) was 0.1444%, the “Sorption % Weight Change” value (29.75 % RH at 25° C.) was 0.1376% and the “Desorptoin % Weight Change” value (39.55 % RH at 25° C.) was 0.1866%. For the same compound, the “Sorption % Weight Change” value (39.55 % RH at 25° C.) was 0.1809%, the “Desorptoin % Weight Change” value (49.7 % RH at 25° C.) was 0.2636% and the “Sorption % Weight Change” value (49.7 % RH at 25° C.) was 0.2386%. The “Desorptoin % Weight Change” value (59.5 % RH at 25° C.) was 0.331%, the “Sorption % Weight Change” value (59.5 % RH at 25° C.) was 0.304% and the “Desorptoin % Weight Change” value (69.1 % RH at 25° C.) was 0.3983%. For the same compound, the “Sorption % Weight Change” value (69.1 % RH at 25° C.) was 0.3945%, the “Desorptoin % Weight Change” value (78.65 % RH at 25° C.) was 0.4849% and the “Sorption % Weight Change” value (78.65 % RH at 25° C.) was 0.4695%. The “Desorptoin % Weight Change” value (88.5 % RH at 25° C.) was 0.6446%, the “Sorption % Weight Change” value (88.5 % RH at 25° C.) was 0.6446% and the “weight gain of dry sample (of its own weight) when equilibrated under humid air” value (dry sample equilibrated under 80% relative humidity (RH) air at 25° C.) was “less than 1%”. For the same compound, the hygroscopicity (dry sample, 80% RH air at 25° C.) was “essentially nonhygroscopic”.
